Like-named read-outs stand apart in the source and are kept apart here.
Target: T1, recombinant human serotonin receptor 5-HT2A (Homo sapiens, UniProt P28223)
T1 construct: expressed in transfected cells; method B: loaded with Ca2+ dye
Test: 5-HT2A antagonist Ca2+ assay in CHO-K1 cells (method A aequorin luminescence / method B FLIPR fluorescence)
Assay type: cell-based
Details: antagonist mode vs EC80 of reference agonist, method A or B
Procedure, shortened: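 Method A: CHO-K1 cells co-expressing human 5-HT2A and mitochondrial apoaequorin were given reference agonist at EC80 15 min after compound, with luminescence read. Method B: dye-loaded 5-HT2A CHO-K1 cells were pretreated with compound, then given serotonin at EC80, with FLIPR fluorescence read. IC50s came from nonlinear fits of percent inhibition.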

T1 sequence (P28223 whole entry): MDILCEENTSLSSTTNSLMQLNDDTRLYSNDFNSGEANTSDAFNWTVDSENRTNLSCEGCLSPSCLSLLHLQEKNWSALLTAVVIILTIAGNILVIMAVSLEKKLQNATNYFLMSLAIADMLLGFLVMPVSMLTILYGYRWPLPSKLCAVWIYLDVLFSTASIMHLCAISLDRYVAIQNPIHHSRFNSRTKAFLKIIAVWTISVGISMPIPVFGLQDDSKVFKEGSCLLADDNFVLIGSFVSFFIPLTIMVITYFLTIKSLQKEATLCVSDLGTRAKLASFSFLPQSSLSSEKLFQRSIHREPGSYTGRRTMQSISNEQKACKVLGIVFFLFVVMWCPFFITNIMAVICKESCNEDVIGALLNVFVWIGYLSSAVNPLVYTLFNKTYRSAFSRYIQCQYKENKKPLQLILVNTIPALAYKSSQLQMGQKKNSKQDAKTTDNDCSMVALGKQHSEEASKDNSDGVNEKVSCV

SMILES	IC50 (read-out: 5HT2A IC50)	IC50 (5HT2A IC50, μM)
COCc1ccc(OC2CCN(CC3CCc4ncccc43)CC2)cc1 (stereo not drawn) [Example 127, 5-((4-(4-(methoxymethyl)phenoxy)piperidin-1-yl)methyl)-6,7-dihydro-5H-cyclopenta[b]pyridine]	> 12 µM	–
COCc1cccc(OC2CCN(CC3CCOc4ccccc43)CC2)c1 (stereo not drawn) [Example 163, 1-(chroman-4-ylmethyl)-4-(3-(methoxymethyl)phenoxy)piperidine]	0.26 µM	–
COc1ccccc1O[C@@H]1CCN(CC2Cc3cccnc3C2)[C@@H](C)C1 (stereo partly drawn) [Example 149, 6-(((2S,4R)-4-(2-methoxyphenoxy)-2-methylpiperidin-1-yl)methyl)-6,7-dihydro-5H-cyclopenta[b]pyridine]	0.3 µM	–
COc1ccccc1OC1CCN(CC2COc3ccccc32)CC1 (stereo not drawn) [Example 130, 1-((2,3-dihydrobenzofuran-3-yl)methyl)-4-(2-methoxyphenoxy)piperidine]	> 10 µM	–
COc1ccccc1OC1CCN(CC2(C)Cc3ccccc3C2)CC1 [Example 146, 4-(2-methoxyphenoxy)-1-((2-methyl-2,3-dihydro-1H-inden-2-yl)methyl)piperidine]	> 1 µM	–
OC1(CN2CCC3(CCc4ccccc4O3)CC2)COCc2ccccc21 (stereo not drawn) [Example 413, 4-(spiro[chromane-2,4′-piperidin]-1′-ylmethyl)isochroman-4-ol]	1.1 µM	–
COc1cccc(O[C@@H]2CCN(CC(O)CO[C@H]3CCc4ccccc43)C2)c1 (stereo partly drawn) [Example 38, 1-(((S)-2,3-dihydro-1H-inden-1-yl)oxy)-3-((R)-3-(3-methoxyphenoxy)pyrrolidin-1-yl)propan-2-ol]	3.17 µM	–
COCc1cccc(OC2CCN(CC3Cc4cccnc4C3)CC2)c1 (stereo not drawn) [Example 152, 6-((4-(3-(methoxymethyl)phenoxy)piperidin-1-yl)methyl)-6,7-dihydro-5H-cyclopenta[b]pyridine]	0.22 µM	–
COc1cccc(COC2CCN(CC3CCc4ccc(OC)cc43)CC2)c1 (stereo not drawn) [Example 245, 1-((6-methoxy-2,3-dihydro-1H-inden-1-yl)methyl)-4-((3-methoxybenzyl)oxy)piperidine]	0.41 µM	–
O=C1c2ccccc2CCN1CCN1CC[C@@H](Oc2ccncc2)C1 [Example 29, (R)-2-(2-(3-(pyridin-4-yloxy)pyrrolidin-1-yl)ethyl)-3,4-dihydroisoquinolin-1(2H)-one]	> 16.7 µM	–
O=C1c2ccccc2CCN1CCN1CC[C@H](Oc2ccncc2)C1 [Example 30, (S)-2-(2-(3-(pyridin-4-yloxy)pyrrolidin-1-yl)ethyl)-3,4-dihydroisoquinolin-1(2H)-one]	> 16.7 µM	–
O=C1c2ccccc2CCN1CCN1CC[C@H](Oc2ccccn2)C1 [Example 16, (S)-2-(2-(3-(pyridin-2-yloxy)pyrrolidin-1-yl)ethyl)-3,4-dihydroisoquinolin-1(2H)-one]	1.85 µM	–
C[C@@H]1C[C@@]2(CCc3ccccc3O2)CCN1CCO[C@H]1CCc2ccccc21 [Example 434, (2R,2′R)-1′-(2-(((S)-2,3-dihydro-1H-inden-1-yl)oxy)ethyl)-2′-methylspiro[chromane-2,4′-piperidine]]	0.73 µM	–
COc1ccccc1OC1CCN(CC2CCc3cc(C#N)ccc32)CC1 (stereo not drawn) [Example 99, 1-((4-(2-methoxyphenoxy)piperidin-1-yl)methyl)-2,3-dihydro-1H-indene-5-carbonitrile]	0.45 µM	–
COc1ccc2c(c1)C(CN1C[C@H]3CC[C@@H]1CN3c1ccccc1)CC2 (single isomer, unassigned) [Compound 313]	> 10 µM	–
Fc1ccc(O[C@@H]2CCN(CC3CCc4ccncc43)C2)cc1 (stereo partly drawn) [Example 5, 7-(((R)-3-(4-fluorophenoxy)pyrrolidin-1-yl)methyl)-6,7-dihydro-5H-cyclopenta[c]pyridine]	5.88 µM	–
O=C1c2ccccc2CCN1CCN1CC[C@@H](Oc2ccccn2)C1 [Example 15, (R)-2-(2-(3-(pyridin-2-yloxy)pyrrolidin-1-yl)ethyl)-3,4-dihydroisoquinolin-1(2H)-one]	> 16.7 µM	–
COc1cccc(O[C@@H]2CCN(CC(O)CO[C@@H]3CCc4ccccc43)C2)c1 (stereo partly drawn) [Example 40, 1-(((R)-2,3-dihydro-1H-inden-1-yl)oxy)-3-((R)-3-(3-methoxyphenoxy)pyrrolidin-1-yl)propan-2-ol]	1.6 µM	–
O[C@@H](COC1CCCCC1)CN1CCC[C@H](Oc2ccc(F)cc2)C1 [Example 269, (R)-1-(cyclohexyloxy)-3-((S)-3-(4-fluorophenoxy)piperidin-1-yl)propan-2-ol]	2.17 µM	–
OC(COC1CCCCC1)CN1CCC2(CCCN(c3ccccc3)C2)C1 (stereo not drawn) [Example 351, 1-(cyclohexyloxy)-3-(7-phenyl-2,7-diazaspiro[4.5]decan-2-yl)propan-2-ol]	> 16.7 µM	–
COc1ccccc1OC1CCN(CC2(C)CCc3ccccc32)CC1 (stereo not drawn) [Example 96, 4-(2-methoxyphenoxy)-1-((1-methyl-2,3-dihydro-1H-inden-1-yl)methyl)piperidine]	> 10 µM	–

SMILES	IC50 (read-out: 5HT2A IC50)	IC50 (5HT2A IC50, μM)
COc1cccc(CN2CCC3(CCN(c4ccccc4)C3)C2)c1 (stereo not drawn) [Example 343, 2-(3-methoxybenzyl)-7-phenyl-2,7-diazaspiro[4.4]nonane]	2.46 µM	–
Cc1cccc(N2CCN(CC3(O)CCOc4ccccc43)CC2)c1C (stereo not drawn) [Example 58, 4-((4-(2,3-dimethylphenyl)piperazin-1-yl)methyl)chroman-4-ol]	0.49 µM	–
COc1ccc2c(c1)[C@H](CN1C[C@@H]3CC[C@H]1CN3c1ccccc1)CC2 (single isomer, unassigned) [Compound 312]	0.43 µM	–
O=C1c2ccccc2CCN1CCN1CCC[C@@H](Oc2ccc(F)cc2)C1 [Example 264, (R)-2-(2-(3-(4-fluorophenoxy)piperidin-1-yl)ethyl)-3,4-dihydroisoquinolin-1(2H)-one]	0.94 µM	–
Fc1ccc(O[C@@H]2CCN(CC3CCc4cnccc43)C2)cc1 (stereo partly drawn) [Example 1, 5-(((R)-3-(4-fluorophenoxy)pyrrolidin-1-yl)methyl)-6,7-dihydro-5H-cyclopenta[c]pyridine]	2.3 µM	–
N#Cc1ccc(O[C@H]2CCN(CCN3CCc4ccccc4C3=O)C2)cc1 [Example 32, (S)-4-((1-(2-(1-oxo-3,4-dihydroisoquinolin-2(1H)-yl)ethyl)pyrrolidin-3-yl)oxy) benzonitrile]	> 16.7 µM	–
c1ccc(N2C[C@@H]3C[C@H]2CCN3CC2Cc3ccncc3C2)cc1 (stereo partly drawn) [Example 321, 6-(((1S,5R)-6-phenyl-2,6-diazabicyclo[3.2.1]octan-2-yl)methyl)-6,7-dihydro-5H-cyclopenta[c]pyridine]	> 10 µM	–
c1ccc2c(c1)CC(CN1CCC3(CC1)OCc1ccccc13)C2 [Example 392, 1′-((2,3-dihydro-1H-inden-2-yl)methyl)-3H-spiro[isobenzofuran-1,4′-piperidine]]	–	1.59 µM
Fc1ccc(O[C@H]2CCN(CC3CCc4ccncc43)C2)cc1 (stereo partly drawn) [Example 6, 7-(((S)-3-(4-fluorophenoxy)pyrrolidin-1-yl)methyl)-6,7-dihydro-5H-cyclopenta[c]pyridine]	3 µM	–
OC(COC1COCc2ccccc21)CN1CCC(Oc2ccccc2)CC1 (stereo not drawn) [Example 239, 1-(isochroman-4-yloxy)-3-(4-phenoxypiperidin-1-yl)propan-2-ol]	3.51 µM	–
OC(COC1CCCCC1)CN1CCCC12CCCN(c1ccccc1)C2 (stereo not drawn) [Example 353, 1-(cyclohexyloxy)-3-(7-phenyl-1,7-diazaspiro[4.5]decan-1-yl)propan-2-ol]	> 16.7 µM	–
COc1ccccc1N1CCC2(CCN(CC3Cc4cccnc4C3)C2)C1 (stereo not drawn) [Example 338, 2-((6,7-dihydro-5H-cyclopenta[b]pyridin-6-yl)methyl)-7-(2-methoxyphenyl)-2,7-diazaspiro[4.4]nonane]	> 10 µM	–
OC(CO[C@@H]1CCc2ccccc21)CN1CC[C@H](Oc2cccc(F)c2)C1 (stereo partly drawn) [Example 37, 1-(((R)-2,3-dihydro-1H-inden-1-yl)oxy)-3-((S)-3-(3-fluorophenoxy)pyrrolidin-1-yl)propan-2-ol]	9.01 µM	–
OC(COc1ccccc1)CN1C[C@@H]2C[C@H](C1)N(c1ccccc1)C2 (stereo partly drawn) [Example 334, 1-phenoxy-3-((1S,5R)-6-phenyl-3,6-diazabicyclo[3.2.1]octan-3-yl)propan-2-ol]	> 16.7 µM	–
COc1ccc(O[C@@H]2CCN(CCN3CCc4ccccc4C3=O)C2)cc1 [Example 27, (R)-2-(2-(3-(4-methoxyphenoxy)pyrrolidin-1-yl)ethyl)-3,4-dihydroisoquinolin-1(2H)-one]	2.8 µM	–
O[C@@H](COC1CCCCC1)CN1CC[C@@H]2C[C@H]1CN2c1ccccc1 [Example 327, (R)-1-(cyclohexyloxy)-3-((1S,5R)-6-phenyl-2,6-diazabicyclo[3.2.1]octan-2-yl)propan-2-ol]	> 3.16 µM	–
COc1ccc2c(c1)C(CN1CCC(Oc3cccc(C#N)c3)CC1)CC2 (stereo not drawn) [Example 110, 3-((1-((6-methoxy-2,3-dihydro-1H-inden-1-yl)methyl)piperidin-4-yl)oxy)benzonitrile]	4.04 µM	–
O[C@H](COC1CCCCC1)CN1CCC[C@@H](Oc2ccc(F)cc2)C1 [Example 266, (S)-1-(cyclohexyloxy)-3-((R)-3-(4-fluorophenoxy)piperidin-1-yl)propan-2-ol]	> 12.9 µM	–
C[C@H]1C[C@]2(CCc3ccccc3O2)CCN1CCN1CCc2ccccc2C1=O [Example 425, 2-(2-((2S,2′S)-2′-methylspiro[chromane-2,4′-piperidin]-1′-yl)ethyl)-3,4-dihydroisoquinolin-1(2H)-one]	0.12 µM	–
c1ccc2c(c1)CCC1(CCN(CC3CCc4cnccc43)CC1)O2 (stereo not drawn) [Example 408, 1′-((6,7-dihydro-5H-cyclopenta[c]pyridin-5-yl)methyl)spiro[chromane-2,4′-piperidine]]	0.74 µM	–
OC(COC1CCCCC1)CN1CCCC12CCN(c1ccccc1)C2 (stereo not drawn) [Example 349, 1-(cyclohexyloxy)-3-(7-phenyl-1,7-diazaspiro[4.4]nonan-1-yl)propan-2-ol]	> 16.7 µM	–
